# Results: patent publication US9995734B2, “Human T cell line assay for evaluating the immunologic identity of glatiramer acetate preparations” (Mylan Inc., priority 2013, dated 2018)
# Legend:
# Type in all cases: cell-based, human
# [1] = system: Donor 1 GMA Expanded T-Cell Lines (222-AG11, 222-AG12, 222-BA11, 222-BC11); assay: ATP proliferation assay (CellTiter Glo), Donor 1 GMA expanded T-cell lines, incl. reactivity to non-canonical GA peptides; conditions: for Proliferation (luminescent ATP assay), Mean: T-cell line 222-AG12, autologous B-LCL
# How it was run: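 GMA-expanded T-cell lines from Donor 1 restimulated with GMA (0–100 μg/mL), or with non-canonical GA peptides, COP and GMA (0–30 μg/mL; T cells 2×10^5 cells/mL). Mitomycin C-treated autologous PBMC or B-LCL served as APC. Proliferation read by CellTiter-Glo ATP luminescence after 3 days at 37° C.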
# Donor 3 GMA T-Cell Lines = assay: ATP proliferation assay (CellTiter Glo), Donor 3 GMA T-cell lines, incl. reactivity to non-canonical GA peptides; conditions: for Non-Canonical Peptide Non-Reactivity: proliferation <2 times no antigen control
# Donor 4 COP T-Cell Lines = assay: ATP proliferation assay (CellTiter Glo), Donor 4 COP T-cell lines, incl. reactivity to non-canonical GA peptides; conditions: 205-1H11; proliferation <2 times no antigen control
substance,measurement,setting,value
poly (Glu-Tyr; 1:1) [GT 11],Non-Canonical Peptide Non-Reactivity,"[1]; 222-AG12, proliferation <2 times no antigen control",GT 11
same,Nonreactive T-Cell Line,"[1]; Donor 1 GMA expanded lines, stimulation with the non-canonical GA peptide",222-AG12 (Donor 1)
same,"Proliferation (luminescent ATP assay), Mean",[1]; 1 ug/mL antigen,2650 RLU
same,"Proliferation (luminescent ATP assay), Mean",[1]; 10 ug/mL antigen,3285 RLU
same,"Proliferation (luminescent ATP assay), Mean",[1]; 30 ug/mL antigen,2231 RLU
same,Non-Canonical Peptide Non-Reactivity,Donor 3 GMA T-Cell Lines; 165-B5G,GT 11
same,Non-Canonical Peptide Non-Reactivity,Donor 3 GMA T-Cell Lines; 165-C4G,GT 11
same,Non-Canonical Peptide Non-Reactivity,Donor 3 GMA T-Cell Lines; 165-C5G,GT 11
same,Non-Canonical Peptide Non-Reactivity,Donor 3 GMA T-Cell Lines; 165-E7G,GT 11
same,Non-Canonical Peptide Non-Reactivity,Donor 3 GMA T-Cell Lines; 165-E9G,GT 11
same,Non-Canonical Peptide Non-Reactivity,Donor 3 GMA T-Cell Lines; 165-F5G,GT 11
same,Non-Canonical Peptide Non-Reactivity,Donor 3 GMA T-Cell Lines; 165-F8G,GT 11
same,Non-Canonical Peptide Non-Reactivity,Donor 3 GMA T-Cell Lines; 165-F10G,GT 11
same,Non-Canonical Peptide Non-Reactivity,Donor 3 GMA T-Cell Lines; 165-H11G,GT 11
same,"Proliferation (luminescent ATP assay), Mean","Donor 3 GMA T-Cell Lines; T-cell line 165-B5G, 1.25 μg/mL antigen, Day 55 of culturing, No Antigen Value 846",2167 RLU
same,"Proliferation (luminescent ATP assay), Mean","Donor 3 GMA T-Cell Lines; T-cell line 165-B5G, 2.5 μg/mL antigen, Day 55 of culturing, No Antigen Value 846",1957 RLU
same,"Proliferation (luminescent ATP assay), Mean","Donor 3 GMA T-Cell Lines; T-cell line 165-B5G, 5 μg/mL antigen, Day 55 of culturing, No Antigen Value 846",1353 RLU
same,"Proliferation (luminescent ATP assay), Mean","Donor 3 GMA T-Cell Lines; T-cell line 165-B5G, 10 μg/mL antigen, Day 55 of culturing, No Antigen Value 846",1191 RLU
same,"Proliferation (luminescent ATP assay), Mean","Donor 3 GMA T-Cell Lines; T-cell line 165-C5G, 1.25 μg/mL antigen, autologous B-LCL",523 RLU
same,"Proliferation (luminescent ATP assay), Mean","Donor 3 GMA T-Cell Lines; T-cell line 165-C5G, 2.5 μg/mL antigen, autologous B-LCL",620 RLU
same,"Proliferation (luminescent ATP assay), Mean","Donor 3 GMA T-Cell Lines; T-cell line 165-C5G, 5 μg/mL antigen, autologous B-LCL",428 RLU
same,"Proliferation (luminescent ATP assay), Mean","Donor 3 GMA T-Cell Lines; T-cell line 165-C5G, 10 μg/mL antigen, autologous B-LCL",471 RLU
same,"Proliferation (luminescent ATP assay), Mean","Donor 3 GMA T-Cell Lines; T-cell line 165-E7G, 1.25 μg/mL antigen, autologous B-LCL, Day 55",2821 RLU
same,"Proliferation (luminescent ATP assay), Mean","Donor 3 GMA T-Cell Lines; T-cell line 165-E7G, 2.5 μg/mL antigen, autologous B-LCL, Day 55",2914 RLU
same,"Proliferation (luminescent ATP assay), Mean","Donor 3 GMA T-Cell Lines; T-cell line 165-E7G, 5 μg/mL antigen, autologous B-LCL, Day 55",2332 RLU
same,"Proliferation (luminescent ATP assay), Mean","Donor 3 GMA T-Cell Lines; T-cell line 165-E7G, 10 μg/mL antigen, autologous B-LCL, Day 55",1848 RLU
same,"Proliferation (luminescent ATP assay), Mean","Donor 3 GMA T-Cell Lines; T-cell line 165-E9G, 1.25 μg/mL antigen, autologous B-LCL",110 RLU
same,"Proliferation (luminescent ATP assay), Mean","Donor 3 GMA T-Cell Lines; T-cell line 165-E9G, 2.5 μg/mL antigen, autologous B-LCL",119 RLU
same,"Proliferation (luminescent ATP assay), Mean","Donor 3 GMA T-Cell Lines; T-cell line 165-E9G, 5 μg/mL antigen, autologous B-LCL",103 RLU
same,"Proliferation (luminescent ATP assay), Mean","Donor 3 GMA T-Cell Lines; T-cell line 165-E9G, 10 μg/mL antigen, autologous B-LCL",96 RLU
same,"Proliferation (luminescent ATP assay), Mean","Donor 3 GMA T-Cell Lines; T-cell line 165-F5G, 1.25 μg/mL antigen, autologous B-LCL",160 RLU
same,"Proliferation (luminescent ATP assay), Mean","Donor 3 GMA T-Cell Lines; T-cell line 165-F5G, 2.5 μg/mL antigen, autologous B-LCL",124 RLU
same,"Proliferation (luminescent ATP assay), Mean","Donor 3 GMA T-Cell Lines; T-cell line 165-F5G, 5 μg/mL antigen, autologous B-LCL",124 RLU
same,"Proliferation (luminescent ATP assay), Mean","Donor 3 GMA T-Cell Lines; T-cell line 165-F5G, 10 μg/mL antigen, autologous B-LCL",158 RLU
same,"Proliferation (luminescent ATP assay), Mean","Donor 3 GMA T-Cell Lines; T-cell line 165-F10G, 1.25 μg/mL antigen, autologous B-LCL",1388 RLU
same,"Proliferation (luminescent ATP assay), Mean","Donor 3 GMA T-Cell Lines; T-cell line 165-F10G, 2.5 μg/mL antigen, autologous B-LCL",1506 RLU
same,"Proliferation (luminescent ATP assay), Mean","Donor 3 GMA T-Cell Lines; T-cell line 165-F10G, 5 μg/mL antigen, autologous B-LCL",1598 RLU
same,"Proliferation (luminescent ATP assay), Mean","Donor 3 GMA T-Cell Lines; T-cell line 165-F10G, 10 μg/mL antigen, autologous B-LCL",1294 RLU
same,"Proliferation (luminescent ATP assay), Mean","Donor 3 GMA T-Cell Lines; T-cell line 165-H11G, 1.25 μg/mL antigen, autologous B-LCL",17 RLU
same,"Proliferation (luminescent ATP assay), Mean","Donor 3 GMA T-Cell Lines; T-cell line 165-H11G, 2.5 μg/mL antigen, autologous B-LCL",354 RLU
same,"Proliferation (luminescent ATP assay), Mean","Donor 3 GMA T-Cell Lines; T-cell line 165-H11G, 5 μg/mL antigen, autologous B-LCL",352 RLU
same,"Proliferation (luminescent ATP assay), Mean","Donor 3 GMA T-Cell Lines; T-cell line 165-H11G, 10 μg/mL antigen, autologous B-LCL",308 RLU
same,Non-Canonical Peptide Non-Reactivity,Donor 4 COP T-Cell Lines,GT 11
